Experimental data from patent US20190185865A1, “USE OF PROKARYOTIC TRANSCRIPTIONAL ACTIVATORS AS METABOLITE BIOSENSORS IN EUKARYOTIC CELLS” (Danmarks Tekniske Universitet, priority 2016, published 2019).

System: BenM
Assay: CCM-induced GFP expression in yeast strains combining BenM expression cassettes and CYC1p reporter promoter variants (flow cytometry)
Assay type: cell-based, Saccharomyces cerevisiae
Conditions: for FC (+/−CCM): 1.4 mM CCM, 24 h
Excerpt: Strains, chemicals and media. Saccharomyces cerevisiae CEN.PK102-5B (MATa ura3-52 his3Δ1 leu2-3/112 MAL2-8^c SUC2), CEN.PK113-5A (MATa, trp1 his3Δ1 leu2-3/112 MAL2-8^c SUC2) and CEN.PK113-7D (wild type, MATa MAL2-8^c SUC2) strains were obtained from Peter Kotter (Johann Wolfgang Goethe-University Frankfurt, Germany). In principal any other yeast strains may be used, such as one obtained from public repository EuroScarf. EasyClone plasmids used in this work are described in Jensen, N. B. et al. EasyClone: method for iterative chromosomal integration of multiple genes in Saccharomyces cerevisiae. FEMS Yeast Res. 14, 238-48 (2014). Escherichia coli strain DH5a was used as a host for cloning and plasmid propagation. The chemicals and Pfu TURBO DNA polymerase were commercially obtained (Sigma-Aldrich and Agilent Technologies Inc., respectively). All acids used were >97% in purity. S. cerevisiae cells were grown at 30° C. in synthetic complete medium as well as drop-out media and agar plates were prepared using pre-mixed drop-out powders (Sigma-Aldrich). Mineral medium was freshly prepared as described previously. For all media containing diacids, 1.4 mM of the individual diacids were dissolved in mineral medium and pH adjusted to 4.5 before sterile filtration. For CCM several dilutions were made to examine the performance of the CCM biosensor. For naringenin, mineral medium was supplemented with 0, 0.05, 0.10 or 0.20 mM naringenin, dissolved in ethanol, the final ethanol concentration for each medium was 2% (v/v), and the final pH of the medium was adjusted to 6.0. E. coli cells were grown at 37° C. in Luria-Bertani (LB) medium supplemented with 100 μg/mL ampicillin.
Events were analyzed using FlowJo software (TreeStar Inc.).

[1] = strain MeLS0131, 491bp_CYC1p:GFP
[2] = strain MeLS0132, 272bp_CYC1p:GFP
[3] = strain MeLS0133, 249bp_CYC1p:GFP
[4] = strain MeLS0134, 209bp_CYC1p:GFP
[5] = strain MeLS0135, 491bp_CYC1p_BenO_T1:GFP
[6] = strain MeLS0136, 272bp_CYC1p_BenO_T1:GFP
[7] = strain MeLS0137, 249bp_CYC1p_BenO_T1:GFP
[8] = strain MeLS0138, 209bp_CYC1p_BenO_T1:GFP
[9] = strain MeLS0177, 491bp_CYC1p_BenO_T2:GFP
[10] = strain MeLS0178, 491bp_CYC1p_BenO_T1/T2:GFP
[11] = strain MeLS0180, 209bp_CYC1p_BenO_T2:GFP
[12] = strain MeLS0181, 209bp_CYC1p_BenO_T1/T2:GFP
[13] = strain MeLS0259, 272bp_CYC1p_BenO_T2:GFP
[14] = strain MeLS0260, 249bp_CYC1p_BenO_T2:GFP
[15] = strain MeLS0261, 272bp_CYC1p_BenO_T1/T2:GFP
[16] = strain MeLS0262, 249bp_CYC1p_BenO_T1/T2:GFP

O=C(O)/C=C\C=C/C(=O)O [CCM, cis, cis-muconic acid]
Mean fluorescense intensities of GFP (24 h), CCM (1.4 mM) [1]: 2899 | FC (+/−CCM) [1]: 1.042 | Mean fluorescense intensities of GFP (24 h), CCM (1.4 mM) [2]: 211 | FC (+/−CCM) [2]: 1.213 | Mean fluorescense intensities of GFP (24 h), CCM (1.4 mM) [3]: 219 | FC (+/−CCM) [3]: 1.043 | Mean fluorescense intensities of GFP (24 h), CCM (1.4 mM) [4]: 171 | FC (+/−CCM) [4]: 1.13 | Mean fluorescense intensities of GFP (24 h), CCM (1.4 mM) [5]: 801 | FC (+/−CCM) [5]: 1.062 | Mean fluorescense intensities of GFP (24 h), CCM (1.4 mM) [6]: 160 | FC (+/−CCM) [6]: 1.032 | Mean fluorescense intensities of GFP (24 h), CCM (1.4 mM) [7]: 180 | FC (+/−CCM) [7]: 1.151 | Mean fluorescense intensities of GFP (24 h), CCM (1.4 mM) [8]: 167 | FC (+/−CCM) [8]: 1.133 | Mean fluorescense intensities of GFP (24 h), CCM (1.4 mM) [9]: 698 | FC (+/−CCM) [9]: 1.088 | Mean fluorescense intensities of GFP (24 h), CCM (1.4 mM) [10]: 241 | FC (+/−CCM) [10]: 0.9731 | Mean fluorescense intensities of GFP (24 h), CCM (1.4 mM) [11]: 165 | FC (+/−CCM) [11]: 1.088 | Mean fluorescense intensities of GFP (24 h), CCM (1.4 mM) [12]: 165 | FC (+/−CCM) [12]: 1.102 | Mean fluorescense intensities of GFP (24 h), CCM (1.4 mM) [13]: 201 | FC (+/−CCM) [13]: 1.002 | Mean fluorescense intensities of GFP (24 h), CCM (1.4 mM) [14]: 313 | FC (+/−CCM) [14]: 0.909 | Mean fluorescense intensities of GFP (24 h), CCM (1.4 mM) [15]: 257 | FC (+/−CCM) [15]: 0.7988 | Mean fluorescense intensities of GFP (24 h), CCM (1.4 mM) [16]: 203 | FC (+/−CCM) [16]: 1
